In patent US20250034173A1, “PYRIDO[4,3-D]PYRIMIDINE COMPOUNDS” (PFIZER INC., priority 2023, published 2025):

Legend:
KRAS Wild Type = KRAS Wild Type (Homo sapiens (Human), UniProt P01116); test: SPR binding affinity and kinetics, GTPγS-loaded KRAS Wild Type; conditions: GTPγS loaded protein, geomean
From the text: (§1) No additional regeneration was used.
(§2) Compound dissociation was monitored for at least 3600 seconds. […] No additional regeneration was used.
(§3) The adequateness of the fit was judged by c2 values and the randomness of residue distribution.

KRAS G12D = KRAS G12D (Homo sapiens (Human), UniProt P01116, G12D); test: SPR binding affinity and kinetics, GTPγS-loaded KRAS G12D; conditions: GTPγS loaded protein, geomean
From the text: as §1, §2, §3

KRAS G12C = KRAS G12C (Homo sapiens (Human), UniProt P01116, G12C); test: SPR binding affinity and kinetics, GTPγS-loaded KRAS G12C; conditions: GTPγS loaded protein, geomean
From the text: as §1, §2, §3

KRAS G12V = KRAS G12V (Homo sapiens (Human), UniProt P01116, G12V); test: SPR binding affinity and kinetics, GTPγS-loaded KRAS G12V; conditions: GTPγS loaded protein, geomean
From the text: as §1, §2, §3

HRAS Wild Type = HRAS Wild Type (Homo sapiens (Human), UniProt P01112); test: SPR binding affinity and kinetics, GTPγS-loaded HRAS Wild Type; conditions: GTPγS loaded protein, geomean
From the text: as §1, §2, §3

NRAS Wild Type = NRAS Wild Type (Homo sapiens (Human), UniProt P01111); test: SPR binding affinity and kinetics, GTPγS-loaded NRAS Wild Type; conditions: GTPγS loaded protein, geomean
From the text: as §1, §2, §3

[1] = test system: H358 (non-small cell lung cancer cell line); test: KRAS Cell Titer Glo (CTG) cell proliferation assay, H358; type: cell-based; conditions: Homo sapiens, NCI-H358, 168 h; H358 cells, 7-day CTG, geomean IC50
From the text: (§4) The CellTiter-Glo® (CTG) Luminescent Cell Viability Assay is a homogeneous method of determining the number of viable cells in culture based on quantitation of the ATP present, an indicator of metabolically active cells. The CTG is designed for use with multi-well formats, making it ideal for automated high-throughput screening (HTS), cell proliferation and cytotoxicity assays. The homogeneous assay procedure involves adding the single reagent (CellTiter-Glo® Reagent) directly to cells cultured in serum-supplemented medium. Cell washing, removal of medium and multiple pipetting steps are not required. The system detects as few as 15 cells per well in a 384-well format in 10 minutes after adding reagent and mixing.
(§5) Cells are grown in humidified 5% CO2 incubator at 37° C. using the culture conditions outlined below. All cell culture media reagents were purchased from Gibco. Cell lines purchased from ATCC: H358 (non-small cell lung cancer cell line), SW620 (colorectal cancer cell line), PANC08.13 (RPM11640+10% FBS+10 units/mL Insulin, pancreatic cancer cell line). Test and control compounds are dispensed as nanoliter drops according to desired final concentrations in 0.1% DMSO using Echo Acoustic Dispenser onto 384 assay plates (Corning, Cat #3764) prior to cell seeding. Cells were seeded in 40 μL volume per well at the following cell densities (cells per well): H358 (300), SW620 (750), PANC 08.13 (600). Cells are incubated in the presence of compound for 7-days. Viability is determined on Day 7 using CellTiter-Glo® (CTG) Luminescent Cell Viability Assay (Promega). CTG is added to a […] per well and incubated at room temperature for 15 minutes before luminescence is captured using an EnVision Reader with LUM384 US protocol. Data is analyzed using Activity Base to determine compound response and will be represented either as a percent effect (PCTEFF) or percent control (PCTOCTL) as described: Zero percent effect control (ZPE) (Negative control)—100% DMSO. Hundred percent effect (HPE) (Positive control)—1 uM Trametinib (GSK1120212, MEK inhibitor) (4 nl of 10 mM and 36 nl of DMSO per well). The following equations/nomenclature are used (% Effect; PCTEFF) and (% of Control; PCTOCTL): PCTEFF: 100*(Raw_Data_Value−HPE/ZPE−HPE), PCTOCTL: 100*Raw_Data_Value/User_Defined_Array), where the User_Defined_Array is either summarized HPE or ZPE.
(§6) Cells with “nd” indicate compound not tested in that particular assay at time of writing. It is to be understood that the geomean IC50 data may change slightly over time with increasing repeat data (ie: increasing n #).

[2] = test system: SW620 (colorectal cancer cell line); test: KRAS Cell Titer Glo (CTG) cell proliferation assay, SW620; type: cell-based; conditions: Homo sapiens, SW-620, 168 h; SW620 cells, 7-day CTG, geomean IC50
From the text: as §4, §5, §6

[3] = test system: PANC08.13 (pancreatic cancer cell line); test: KRAS Cell Titer Glo (CTG) cell proliferation assay, PANC08.13; type: cell-based; conditions: Homo sapiens, PANC-08-13, 168 h; PANC08.13 cells, 7-day CTG, geomean IC50
From the text: as §4, §5, §6

Molecule: C[C@@H]1CCCc2cc3[nH]ncc3c(-c3nc4c5c(nc(OC[C@@]67CCCN6C/C(=C\F)C7)nc5c3F)N3CCCOC[C@H]3CO4)c21 [Example 54, (8aS)-4-fluoro-2-{[(2Z,7aS)-2-(fluoromethylidene)tetrahydro-1H-pyrrolizin-7a(5H)-yl]methoxy}-5-[(5R)-5-methyl-5,6,7,8-tetrahydro-1H-benzo[f]indazol-4-yl]-8a,9,12,13-tetrahydro-8H,11H-7,10-dioxa-1,3,6,13a-tetraazanaphtho[1,8-ab]heptalene]
- Kd (KRAS Wild Type): 1 nM
- Kd (KRAS G12D): 1 nM
- Kd (KRAS G12C): < 1 nM
- Kd (KRAS G12V): 1 nM
- Kd (HRAS Wild Type): > 10000 nM
- Kd (NRAS Wild Type): > 10000 nM

Molecule: COC/C=C1\CN2CCC[C@@]2(COc2nc3c4c(nc(-c5c6c(cc7[nH]ncc57)CCC[C@H]6OC)c(F)c4n2)OC[C@@H]2COCCCN32)C1 (single isomer, unassigned) [Example 58, (8aS)-4-fluoro-2-{[(2Z,7aS)-2-(2-methoxyethylidene)tetrahydro-1H-pyrrolizin-7a(5H)-yl]methoxy}-5-[(5R*)-5-methoxy-5,6,7,8-tetrahydro-1H-benzo[f]indazol-4-yl]-8a,9,12,13-tetrahydro-8H,11H-7,10-dioxa-1,3,6,13a-tetraazanaphtho[1,8-ab]heptalene]
- Kd (KRAS Wild Type): 61 nM
- Kd (KRAS G12D): 74 nM
- Kd (KRAS G12C): 42 nM
- Kd (KRAS G12V): 81 nM
- Kd (HRAS Wild Type): > 10000 nM
- Kd (NRAS Wild Type): > 10000 nM

Molecule: (1Z)-1-[(7aS)-7a-({[(8aS)-5-(6-chloro-5-cyclopropyl-1H-indazol-4-yl)-4-fluoro-8a,9,12,13-tetrahydro-8H,11H-7,10-dioxa-1,3,6,13a-tetraazanaphtho[1,8-ab]heptalen-2-yl]oxy}methyl)tetrahydro-1H-pyrrolizin-2(3H)-ylidene]propan-2-ol [Example 60]
- Kd (KRAS Wild Type): 25 nM
- Kd (KRAS G12D): 11 nM
- Kd (KRAS G12C): 26 nM
- Kd (KRAS G12V): 18 nM
- Kd (HRAS Wild Type): > 10000 nM
- Kd (NRAS Wild Type): > 10000 nM

Molecule: C=C1CN2CCC[C@@]2(COc2nc3c4c(nc(-c5c(C)c(Cl)cc6[nH]ncc56)c(F)c4n2)OC[C@@H]2COCCCN32)C1 [Example 7, (8aS)-5-(6-chloro-5-methyl-1H-indazol-4-yl)-4-fluoro-2-{[(7aS)-2-methylidenetetrahydro-1H-pyrrolizin-7a(5H)-yl]methoxy}-8a,9,12,13-tetrahydro-8H,11H-7,10-dioxa-1,3,6,13a-tetraazanaphtho[1,8-ab]heptalene]
- Kd (KRAS Wild Type): 34 nM
- Kd (KRAS G12D): 28 nM
- Kd (KRAS G12C): 15 nM
- Kd (KRAS G12V): 24 nM
- IC50 [1]: 173 nM
- IC50 [2]: 139 nM
- IC50 [3]: 22 nM

Molecule: F/C=C1/CN2CCC[C@@]2(COc2nc3c4c(nc(-c5c(C6CC6)c(Cl)cc6[nH]ncc56)c(F)c4n2)OC[C@@H]2COCCCN32)C1 [Example 15, (8aS)-5-(6-chloro-5-cyclopropyl-1H-indazol-4-yl)-4-fluoro-2-{[(2E,7aS)-2-(fluoromethylidene)tetrahydro-1H-pyrrolizin-7a(5H)-yl]methoxy}-8a,9,12,13-tetrahydro-8H,11H-7,10-dioxa-1,3,6,13a-tetraazanaphtho[1,8-ab]heptalene]
- Kd (KRAS Wild Type): 4 nM
- Kd (KRAS G12D): 2 nM
- Kd (KRAS G12C): 5 nM
- Kd (KRAS G12V): 4 nM
- IC50 [1]: 30 nM
- IC50 [2]: 31 nM
- IC50 [3]: 3 nM

Molecule: C=C1CN2CCC[C@@]2(COc2nc3c4c(nc(-c5c6c(cc7[nH]ncc57)CCCC6)c(F)c4n2)OC[C@@H]2COCCCN32)C1 [Example 50, (8aS)-4-fluoro-2-{[(7aS)-2-methylidenetetrahydro-1H-pyrrolizin-7a(5H)-yl]methoxy}-5-(5,6,7,8-tetrahydro-1H-benzo[f]indazol-4-yl)-8a,9,12,13-tetrahydro-8H,11H-7,10-dioxa-1,3,6,13a-tetraazanaphtho[1,8-ab]heptalene]
- Kd (KRAS Wild Type): 53 nM
- Kd (KRAS G12D): 31 nM
- Kd (KRAS G12C): 47 nM
- Kd (KRAS G12V): 42 nM
- IC50 [1]: 206 nM
- IC50 [2]: 75 nM
- IC50 [3]: 105 nM

Molecule: C=C1CN2CCC[C@@]2(COc2nc3c4c(nc(-c5c(Cl)c(C)cc6[nH]ncc56)c(F)c4n2)OC[C@@H]2COCCCN32)C1 [Example 8]
- Kd (KRAS Wild Type): 117 nM
- Kd (KRAS G12D): 141 nM
- Kd (KRAS G12C): 176 nM
- Kd (KRAS G12V): 105 nM
- IC50 [1]: 263 nM
- IC50 [2]: 294 nM
- IC50 [3]: 48 nM

Molecule: Fc1c(-c2c(C3CC3)c(Cl)cc3[nH]ncc23)nc2c3c(nc(OC[C@@]45C[C@@H](F)CN4CC4(CC4)C5)nc13)N1CCCOC[C@H]1CO2 [Example 35, (8aS)-2-{[(6′R,7′aR)-6′-fluorodihydro-1′H,3′H-spiro[cyclopropane-1,2′-pyrrolizin]-7′a(5′H)-yl]methoxy}-5-(6-chloro-5-cyclopropyl-1H-indazol-4-yl)-4-fluoro-8a,9,12,13-tetrahydro-8H,11H-7,10-dioxa-1,3,6,13a-tetraazanaphtho[1,8-ab]heptalene]
- Kd (KRAS Wild Type): 11 nM
- Kd (KRAS G12D): 8 nM
- Kd (KRAS G12C): 12 nM
- Kd (KRAS G12V): 12 nM
- IC50 [1]: 126 nM
- IC50 [2]: 49 nM
- IC50 [3]: 10 nM

Molecule: C=C1CN2CCC[C@@]2(COc2nc3c4c(nc(-c5c6c(cc7[nH]nc(Cl)c57)CCC[C@H]6C)c(F)c4n2)OC[C@@H]2COCCCN32)C1 [Example 62, (8aS)-5-[(5R)-3-chloro-5-methyl-5,6,7,8-tetrahydro-1H-benzo[f]indazol-4-yl]-4-fluoro-2-{[(7aS)-2-methylidenetetrahydro-1H-pyrrolizin-7a(5H)-yl]methoxy}-8a,9,12,13-tetrahydro-8H,11H-7,10-dioxa-1,3,6,13a-tetraazanaphtho[1,8-ab]heptalene]
- Kd (KRAS Wild Type): < 1 nM
- Kd (KRAS G12D): < 1 nM
- Kd (KRAS G12C): < 1 nM
- Kd (KRAS G12V): < 1 nM
- Kd (HRAS Wild Type): > 10000 nM
- Kd (NRAS Wild Type): > 10000 nM

Molecule: C=C1CN2CC[C@@H](O)[C@@]2(COc2nc3c4c(nc(-c5c(C6CC6)c(Cl)cc6[nH]ncc56)c(F)c4n2)OC[C@@H]2COCCCN32)C1 (relative stereo) [Example 45, (1R,7aS*)-7a-({[(8aS)-5-(6-chloro-5-cyclopropyl-1H-indazol-4-yl)-4-fluoro-8a,9,12,13-tetrahydro-8H,11H-7,10-dioxa-1,3,6,13a-tetraazanaphtho[1,8-ab]heptalen-2-yl]oxy}methyl)-6-methylidenehexahydro-1H-pyrrolizin-1-ol]
- Kd (KRAS Wild Type): 3 nM
- Kd (KRAS G12D): 1 nM
- Kd (KRAS G12C): 3 nM
- Kd (KRAS G12V): 2 nM
- IC50 [1]: 19 nM
- IC50 [2]: 32 nM
- IC50 [3]: 20 nM

Molecule: C=C1CN2CCC[C@@]2(COc2nc3c4c(nc(-c5c([C@H]6C[C@H]6C)c(Cl)cc6[nH]ncc56)c(F)c4n2)OC[C@@H]2COCCCN32)C1 (single isomer, unassigned) [Example 31, (8aS)-5-{6-chloro-5-[(1S*,2R*)-2-methylcyclopropyl]-1H-indazol-4-yl}-4-fluoro-2-{[(7aS)-2-methylidenetetrahydro-1H-pyrrolizin-7a(5H)-yl]methoxy}-8a,9,12,13-tetrahydro-8H,11H-7,10-dioxa-1,3,6,13a-tetraazanaphtho[1,8-ab]heptalene]
- Kd (KRAS Wild Type): 10 nM
- Kd (KRAS G12D): 6 nM
- Kd (KRAS G12C): 7 nM
- Kd (KRAS G12V): 5 nM
- IC50 [1]: 54 nM
- IC50 [2]: 115 nM
- IC50 [3]: 11 nM
